Experimental data: patent publication US9113629B2, “4-amino-6-(4-substituted-phenyl)-picolinates and 6-amino-2-(4-substituted-phenyl)-pyrimidine-4-carboxylates and their use as herbicides” (DOW AGROSCIENCES LLC, priority 2013, dated 2015)
Read-outs that look alike come from different tables or passages of the source.

Tests used:
[1] = tested on: Key Grass and Sedge Weeds as well as Grass Crops; experiment: Post-emergent Test II herbicidal activity (Table 6); type: in vivo; settings: post-emergence, 336 h; for pest or weed control at 70 g/ha: 70 g ai/ha; for pest or weed control at 140 g/ha: 140 g ai/ha
In short: (§1)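 Percent injury, 0 (none) to 100 (complete kill), was judged visually 14 d after spraying young plants at the first or second true leaf stage with compound in an acetone/DMSO aqueous carrier at 187 L/ha. Plants were kept in a greenhouse at 23–29 °C by day.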

[2] = tested on: Key Broadleaf Weed and Crop Species; experiment: Post-emergent Test II herbicidal activity (Table 5); type: in vivo; settings: post-emergence, 336 h, 14 days after application; for pest or weed control at 70 g/ha: application rate 70 g ai/ha; for pest or weed control at 140 g/ha: application rate 140 g ai/ha
In short: as §1

[3] = CYPES: yellow nutsedge (Cyperus esculentus), read-out: Visual Growth Reduction (%) 14 Days After Application, CYPES
[4] = DIGSA: crabgrass (Digitaria sanguinalis), read-out: Visual Growth Reduction (%) 14 Days After Application, DIGSA
[5] = ECHCG: barnyardgrass (Echinochloa crus-galli), read-out: Visual Growth Reduction (%) 14 Days After Application, ECHCG
[6] = ORYSA: rice (Oryza sativa), crop, read-out: Visual Growth Reduction (%) 14 Days After Application, ORYSA
[7] = SETFA: giant foxtail (Setaria faberi), read-out: Visual Growth Reduction (%) 14 Days After Application, SETFA
[8] = SORVU: grain sorghum (Sorghum vulgare), read-out: Visual Growth Reduction (%) 14 Days After Application, SORVU
[9] = TRZSS (wheat, Triticum aestivum), crop, read-out: Visual Growth Reduction (%) 14 Days After Application, TRZSS
[10] = ZEAMX: maize, corn (Zea mays), crop, read-out: Visual Growth Reduction (%) 14 Days After Application, ZEAMX
[11] = ABUTH: velvetleaf (Abutilon theophrasti), read-out: Visual Growth Reduction (%) 14 Days After Application, ABUTH
[12] = AMARE: redroot pigweed (Amaranthus retroflexus), read-out: Visual Growth Reduction (%) 14 Days After Application, AMARE
[13] = BRSNN: oilseed-rape, canola (Brassica napus), read-out: Visual Growth Reduction (%) 14 Days After Application, BRSNN
[14] = CHEAL: lambsquarters (Chenopodium album), read-out: Visual Growth Reduction (%) 14 Days After Application, CHEAL
[15] = EPHHL: wild poinsettia (Euphorbia heterophylla), read-out: Visual Growth Reduction (%) 14 Days After Application, EPHHL
[16] = HELAN: sunflower (Helianthus annuus), read-out: Visual Growth Reduction (%) 14 Days After Application, HELAN
[17] = VIOTR: wild pansy (Viola tricolor), read-out: Visual Growth Reduction (%) 14 Days After Application, VIOTR

In the case of `COC(=O)c1nc(-c2ccc(OC(F)F)cc2)c(F)c(N)c1Cl` [Compound 85], the pest or weed control at 70 g/ha [1, 3] is reported as 85 to 94%, the pest or weed control at 140 g/ha [1, 3] is reported as 85 to 94% and the pest or weed control at 70 g/ha [1, 4] is reported as 30 to 44%. It also gave a pest or weed control at 140 g/ha [1, 4] of 30 to 44%, a pest or weed control at 70 g/ha [1, 5] of 95 to 100% and a pest or weed control at 140 g/ha [1, 5] of 95 to 100%. The pest or weed control at 70 g/ha [1, 6] was 0 to 29%, the pest or weed control at 140 g/ha [1, 6] was 0 to 29% and the pest or weed control at 70 g/ha [1, 7] was 45 to 59%. It also gave a pest or weed control at 140 g/ha [1, 7] of 75 to 84%, a pest or weed control at 70 g/ha [1, 8] of 75 to 84% and a pest or weed control at 140 g/ha [1, 8] of 85 to 94%. The pest or weed control at 70 g/ha [1, 9] was 30 to 44%, the pest or weed control at 140 g/ha [1, 9] was 30 to 44% and the pest or weed control at 70 g/ha [1, 10] was 75 to 84%. For the same compound, the pest or weed control at 140 g/ha [1, 10] was 75 to 84%, the pest or weed control at 70 g/ha [2, 11] was 95 to 100% and the pest or weed control at 140 g/ha [2, 11] was 95 to 100%. It also gave a pest or weed control at 70 g/ha [2, 12] of 95 to 100%, a pest or weed control at 140 g/ha [2, 12] of 95 to 100% and a pest or weed control at 70 g/ha [2, 13] of 45 to 59%. The pest or weed control at 140 g/ha [2, 13] was 60 to 74%, the pest or weed control at 70 g/ha [2, 14] was 85 to 94% and the pest or weed control at 140 g/ha [2, 14] was 95 to 100%. For the same compound, the pest or weed control at 70 g/ha [2, 15] was 95 to 100%, the pest or weed control at 140 g/ha [2, 15] was 95 to 100% and the pest or weed control at 70 g/ha [2, 16] was 85 to 94%. It also gave a pest or weed control at 140 g/ha [2, 16] of 95 to 100%, a pest or weed control at 70 g/ha [2, 17] of 0 to 29% and a pest or weed control at 140 g/ha [2, 17] of 0 to 29%.
